Here are results for 23 compounds from patent US5109003A, “Method for the treatment of peptic ulcer disease” (Hoechst Japan Limited, priority 1989, dated 1992).

Like-named read-outs stand apart in the source and are kept apart here.

Data set [1] concerns ethanol-induced gastric ulcer. The data set can be described thus: Protective effect on ethanol-induced gastric ulcer in rats. Type of data set: in vivo, rat (male Sprague-Dawley). Conditions: 10 mg/kg p.o.; for Ulcer index: mean ± S.E.; for inhibition in vivo at 10 mg/kg: Rattus norvegicus, po, 1 h. The procedure: 1.2. Protective Effect on Ethanol-induced Gastric Ulcer in Rats
Male Sprague-Dawley rats weighing 300-400 g were used in groups of 4-36. After fasting overnight, the animals were given orally the compounds. Thirty minutes later they received absolute ethanol (1 ml/body) orally and were sacrificed after 60 minutes. The stomach was removed and examined for erosions. The ulcer index was obtained in the same way as under 1.1.

Data set [2] can be described thus: in vivo. Conditions: mouse, mice. From the text:
The intravenous or intraperitoneal LD50 values of the compounds of this invention and the reference compound (propentofylline) for mice are shown in Table 4.

Data set [3] deals with stress-induced gastric ulcer. The data set can be described thus: Protective effect on gastric ulcer induced by restraint plus water-immersion stress in rats. Type of data set: in vivo, rat (male Sprague-Dawley). Conditions: for Ulcer index / inhibition in vivo at 10 mg/kg: 10 mg/kg p.o.; for Ulcer index: mean ± S.E.; for inhibition in vivo at 10 mg/kg: Rattus norvegicus, po. As to the method:
1.1. Protective Effect of Gastric Ulcer Induced by Restraint Plus Water-immersion Stress in Rats
Male Sprague-Dawley rats weighing 250-300 g were used in groups of 5-35. The animals were given the compounds by the oral route after fasting overnight. Immediately, under light ether anesthesia they were placed in a restraint box and immersed in water at 23° C. for 6 or 7 hours. Then the animals were sacrificed, and their stomachs were isolated, inflated with 8 ml of 1% formalin for 10 minutes, opened along the greater curvature, and examined for the presence of gastric erosions. The longest axis of each erosion induced on the glandular section of the stomach was measured, and the sum of the lengths was defined as an ulcer index.

Data set [4] deals with peptic ulcer. Conditions: Ter. Arkh. 57, 52-55, 1985; JP Laid-Open 225317/88; cited from earlier work.
The nature of data set [5]: in vivo. Conditions: mouse, mice, oral, read-out: oral LC50.
[6] abbreviates: control distilled water (93.1 ± 8.9 mm).
[7] abbreviates: ip, i.p., read-out: LD50 (intraperitoneal).
Where [8] appears, read: control distilled water (26.0 ± 2.2 mm).
Where [9] appears, read: iv, i.v., read-out: LD50 (intravenous).
Setting [10] is: control 10% EtOH (32.9 ± 3.3 mm).
The mark [11] stands for this setting: control 10% EtOH (78.9 ± 8.5 mm).

What is called inhibition in vivo is the drop in the measured response relative to a control, in per cent. With `CCCn1cnc2c1c(=O)n(CCCC(C)(O)CC)c(=O)n2C` (stereo not drawn) [Compound 12], the Ulcer index in data set [1] (setting [6]) stood at 26.1 ± 10.8 mm. Besides, the inhibition in vivo at 10 mg/kg in data set [1] (vs. control distilled water) was 72%. Further, the LD50 in data set [2] (setting [7]) is 300 to 600 mg/kg.

Regarding `CCOCn1cnc2c1c(=O)n(CCCCC(C)(C)O)c(=O)n2CC` [Compound 18], the results for the Ulcer index in data set [3] (setting [8]) and in data set [1] (setting [6]) were 6.9 ± 2.1 mm and 16.8 ± 7.1 mm, respectively. The figures for the inhibition in vivo at 10 mg/kg in data set [3] (vs. control distilled water) and in data set [1] (vs. control distilled water) were 73.5% and 82%, respectively. Besides, the LD50 in data set [2] (setting [9]) is > 200 mg/kg.

Take `CCCn1c(=O)c2c(ncn2CCCCC(C)(C)O)n(C)c1=O` [Compound 8]: the Ulcer index in data set [3] (setting [8]) was 12.1 ± 2.9 mm. Moreover, the inhibition in vivo at 10 mg/kg in data set [3] (vs. control distilled water) stood at 53.5%. For the same compound, the LD50 in data set [2] (setting [9]) was 100 to 200 mg/kg.

For `CCn1c(=O)n(CCCCCC(C)(C)O)c(=O)c2c1ncn2C(C)C` [Compound 15, 3-Ethyl-1-(6-hydroxy-6-methylheptyl)-7-isopropylxanthine], the Ulcer index in data set [3] (setting [10]) is given as 6.6 ± 1.6 mm; in data set [1] (setting [11]) it was 4.2 ± 2.2 mm. Also, the inhibition in vivo at 10 mg/kg was determined as 79.9% in data set [3] (vs. control 10% EtOH) and 94.7% in data set [1] (listed under control 10% EtOH). Further, the LD50 in data set [2] (setting [7]) was > 600 mg/kg.

In the case of `CC(=O)CCCCn1c(=O)c2c(ncn2C)n(C)c1=O` [pentoxifylline], the “antiulcer activity (in words, from literature)” value in data set [4] is “antiulcer effects”.

On to `C=CCCn1c(=O)c2c(ncn2CCCCC(C)(C)O)n(CC)c1=O` [Compound 21, 1-(3-Butenyl)-3-ethyl-7-(5-hydroxy-5-methylhexyl)-3-xanthine], for which the Ulcer index in data set [1] (setting [6]) turned out to be 19.2 ± 9.2 mm. In data set [1] (vs. control distilled water), this compound showed an inhibition in vivo at 10 mg/kg of 79.4%.

For the compound `CCCn1cnc2c1c(=O)n(CCCCCC(C)(C)O)c(=O)n2C` [Compound 11], the Ulcer index in data set [3] (setting [8]) amounted to 16.0 ± 3.8 mm. Further, the inhibition in vivo at 10 mg/kg in data set [3] (vs. control distilled water) was determined as 38.5%. Further, the LD50 in data set [2] (setting [7]) was 150 to 300 mg/kg.

Take `CCCn1cnc2c1c(=O)n(CCCCCC(C)(C)O)c(=O)n2CC` [Compound 14, 3-Ethyl-1-(6-hydroxy-6-methylheptyl)-7-propylxanthine]: the Ulcer index in data set [3] (setting [10]) is 4.8 ± 1.7 mm; in data set [1] (setting [11]), 3.7 ± 1.1 mm. Also, the inhibition in vivo at 10 mg/kg in data set [3] (vs. control 10% EtOH) worked out at 85.4%; in data set [1] (listed under control 10% EtOH) it was 95.3%. For the same compound, the LD50 in data set [2] (setting [9]) is > 200 mg/kg.

For the compound `CCOCCn1c(=O)c2c(ncn2CCCCC(C)(C)O)n(C)c1=O` [Compound 10], in data set [3] (setting [8]), the Ulcer index is recorded as 17.8 ± 3.3 mm. For the same compound, the inhibition in vivo at 10 mg/kg in data set [3] (vs. control distilled water) was found to be 31.5%. The LD50 in data set [2] (setting [9]) is > 200 mg/kg.

As for `CCCn1cnc2c1c(=O)n(CCCCC(C)(C)O)c(=O)n2CC` [Compound 1], the Ulcer index in data set [3] (setting [8]) stood at 8.7 ± 1.6 mm; in data set [1] (setting [6]), 12.0 ± 6.9 mm. For the same compound, the inhibition in vivo at 10 mg/kg in data set [3] (vs. control distilled water) came to 66.5%; in data set [1] (vs. control distilled water) it was 87.1%. Moreover, the LD50 in data set [2] (setting [9]) lay within 100 to 200 mg/kg.

In the case of `CCCn1cnc2c1c(=O)n(CCCC(C)(C)O)c(=O)n2CC` [Compound 3], in data set [3] (setting [8]), the Ulcer index is 12.8 ± 2.5 mm. Besides, the inhibition in vivo at 10 mg/kg in data set [3] (vs. control distilled water) came out at 50.8%. Besides, the LD50 in data set [2] (setting [9]) is > 200 mg/kg.

Consider `CCn1c(=O)n(CCCCCC(C)(C)O)c(=O)c2c1ncn2C` [Compound 4], for which the Ulcer index in data set [3] (setting [8]) was 10.6 ± 1.8 mm; in data set [1] (setting [6]), 21.2 ± 8.4 mm. For the same compound, the figures for the inhibition in vivo at 10 mg/kg in data set [3] (vs. control distilled water) and in data set [1] (vs. control distilled water) were 59.2% and 77.2%, respectively. The LD50 in data set [2] (setting [9]) was 100 to 200 mg/kg.

Consider `CCn1c(=O)n(CCCCC(C)(C)O)c(=O)c2c1ncn2C` [Compound 2], for which the Ulcer index in data set [3] (setting [8]) was found to be 6.5 ± 1.6 mm; in data set [1] (setting [6]), 23.5 ± 7.0 mm. The inhibition in vivo at 10 mg/kg in data set [3] (vs. control distilled water) came out at 75%; in data set [1] (vs. control distilled water), 74.8%. The “times more effective than propentofylline in improving stress-induced gastric ulcers” value in data set [3] (stress-induced gastric ulcers) worked out at 2.5 times. In addition, the LD50 in data set [2] (setting [9]) was > 200 mg/kg.

`CCn1cnc2c1c(=O)n(CCCCCC(C)(C)O)c(=O)n2CC` [Compound 13, 3,7-diethyl-1-(6-hydroxy-6-methylheptyl)-xanthine]: the Ulcer index in data set [3] (setting [8]) is listed as 5.0 ± 1.0 mm; in data set [1] (setting [6]) it was 15.7 ± 9.4 mm. For the same compound, the figures for the inhibition in vivo at 10 mg/kg in data set [3] (vs. control distilled water) and in data set [1] (vs. control distilled water) were 80.8% and 83.1%, respectively. The LD50 in data set [2] (setting [9]) was > 200 mg/kg.

In the case of `C=CCCn1cnc2c1c(=O)n(CCCCC(C)(C)O)c(=O)n2C` [Compound 6], the Ulcer index in data set [3] (setting [10]) was 17.4 ± 4.5 mm. Further, the inhibition in vivo at 10 mg/kg in data set [3] (vs. control 10% EtOH) worked out at 47.1%. Further, the LD50 in data set [2] (setting [7]) was in the range of 150 to 300 mg/kg.

As to `CCCn1cnc2c1c(=O)n(CCCCC(C)=O)c(=O)n2C` [Compound 22, 1-(5'-oxohexyl)-3-methyl-7-propyl xanthine, reference compound], the Ulcer index in data set [3] (setting [8]) was 18.4 ± 3.0 mm; in data set [1] (setting [11]), 34.7 ± 8.4 mm. Besides, the inhibition in vivo at 10 mg/kg was 29.2% in data set [3] (vs. control distilled water) and 62.7% in data set [1] (listed under control 10% EtOH). The “antiulcer activity (in words, from literature)” value in data set [4] was “superior to that of pentoxifylline”.

Consider `CCn1cnc2c1c(=O)n(CCCCC(C)(C)O)c(=O)n2CC` [Compound 16, 3,7-Diethyl-1-(5-hydroxy-5-methylhexyl)-xanthine], for which the Ulcer index in data set [3] (setting [8]) amounted to 6.8 ± 1.6 mm; in data set [1] (setting [6]), 17.0 ± 7.1 mm. Moreover, the inhibition in vivo at 10 mg/kg came out at 73.8% in data set [3] (vs. control distilled water) and 81.7% in data set [1] (vs. control distilled water). In addition, in data set [2] (setting [9]), the LD50 is > 200 mg/kg.

For the compound `Cn1c(=O)n(CCCCC(C)(C)O)c(=O)c2[nH]cnc21` [Compound 5], in data set [3] (setting [8]), the Ulcer index is 7.5 ± 2.0 mm. For the same compound, the inhibition in vivo at 10 mg/kg in data set [3] (vs. control distilled water) is 71.2%. Moreover, the figures for the LD50 in data set [2] (setting [9]) and in data set [5] were > 200 mg/kg and > 2500 mg/kg, respectively.

`Cn1cnc2c1c(=O)n(CCCCC(C)(C)O)c(=O)n2C` [Compound 7]: the Ulcer index in data set [3] (setting [8]) was 15.8 ± 4.4 mm. Moreover, the inhibition in vivo at 10 mg/kg in data set [3] (vs. control distilled water) was determined as 39.2%. Besides, the LD50 in data set [2] (setting [9]) is > 200 mg/kg.

On to `C=CCn1cnc2c1c(=O)n(CCCCC(C)(C)O)c(=O)n2CC` [Compound 19, 7-Allyl-3-ethyl-1-(5-hydroxy-5-methylhexyl)-xanthine], for which the Ulcer index in data set [3] (setting [8]) stood at 10.2 ± 2.4 mm; in data set [1] (setting [6]), 5.2 ± 2.0 mm. Also, the inhibition in vivo at 10 mg/kg was found to be 60.8% in data set [3] (vs. control distilled water) and 94.4% in data set [1] (vs. control distilled water). For the same compound, in data set [2] (setting [9]), the LD50 is > 100 mg/kg.

As for `C=CCn1cnc2c1c(=O)n(CCCCC(C)(C)O)c(=O)n2C` [Compound 20, 7-Allyl-1-(5-hydroxy-5-methylhexyl)-3-methylxanthine], in data set [3] (setting [8]), the Ulcer index turned out to be 10.6 ± 3.0 mm. Further, in data set [3] (vs. control distilled water), the inhibition in vivo at 10 mg/kg came to 59.2%. In data set [2] (setting [9]), the LD50 is > 100 mg/kg.

On to `CCCCn1cnc2c1c(=O)n(CCCCC(C)(C)O)c(=O)n2CC` [Compound 17, 7-Butyl-3-ethyl-1-(5-hydroxy-5-methylhexyl)-xanthine], for which the Ulcer index in data set [3] (setting [10]) is given as 12.5 ± 3.3 mm; in data set [1] (setting [11]), 13.0 ± 8.3 mm. In addition, the values for the inhibition in vivo at 10 mg/kg in data set [3] (vs. control 10% EtOH) and in data set [1] (listed under control 10% EtOH) were 62% and 83.5%, respectively. For the same compound, in data set [2] (setting [7]), the LD50 is > 600 mg/kg.

Consider `Cn1c(=O)n(CCCCC(C)(C)O)c(=O)c2c1ncn2CCC(O)CO` (stereo not drawn) [Compound 9], for which the Ulcer index in data set [3] (setting [8]) is listed as 17.8 ± 3.3 mm. Moreover, the inhibition in vivo at 10 mg/kg in data set [3] (vs. control distilled water) is 31.5%. In addition, the LD50 in data set [2] (setting [9]) was > 100 mg/kg.
